{
  "source": "paper PMC13586308",
  "about": "“Cell type–selective targeting by heterobifunctional protein binders via in-cell enrichment” (Nature Communications, 2026)",
  "tested_on": "FKBP and BRD4 family members",
  "experiment": "global proteomics after PROTAC treatment, MV4-11",
  "type": "cell-based, Homo sapiens",
  "description": "Cell pellets equivalent to those used in the cell uptake assay were resuspended in 220 μL of 50 mM Tris pH 8.0, 2% SDS for 30 min at 850 rpm at RT, and centrifuged at 15000 g for 15 min. […] The supernatant was reduced with 5 mM DTT at 37 °C for 30 min then alkylated with 15 mM iodoacetamide at room temperature for 30 min in the dark. 150 μl of the solutions were subjected to a Protein Aggregation Capture digestion protocol using amine magnetic beads ([…]) and a King Fischer instrument (Thermo Scientific). In short, soluble proteins are captured on the magnetic beads and washed prior to the addition of 1/50 (w/w) trypsin (Promega) for an overnight digestion at 37 °C and 850 rpm. On the consecutive day, digested peptides are released, and the peptide concentration of the supernatants determined using a fluorimetric assay (Pierce). 200 ng peptide was loaded on Evotips (Evosep Biosystems). Peptides were separated on an Evosep One LC system coupled to a timsTOF Pro 2 instrument (Bruker) using a 30-sample-per-day method (44 min gradient). Peptides were resolved on an 8 cm, 1.5 μm x 150 μm Performance column (Evosep Biosystems). […] The relaxed-prot-inf option was used for library-free processing of the data. […] Match between runs (MBR) was enabled, and the normalization option switched on.",
  "data": [
    {"smiles": "Cc1sc2c(c1C)C(c1ccc(Cl)cc1)=NC(CC(=O)NCCOCCn1cc(COCC3CN(C(C)c4ccccn4)C(=O)C4CCCC3N4S(=O)(=O)c3cc(Cl)cc(Cl)c3)nn1)c1nnc(C)n1-2", "note": "(stereo not shown) [a1dj]", "values": [
      {"measurement": "effect on BRD4 levels by global proteomics", "value": "did not affect BRD4 levels"}
    ]}
  ]
}
